Source: patent US20070043049A1, “Substituted heterocyclic diarylamine analogues” (Neurogen Corporation, priority 2003, published 2007)

Molecular target: T1, human capsaicin receptor (Homo sapiens, UniProt Q8NER1)
T1 construct: pBK-CMV expression construct encoding the full length human capsaicin receptor; expressed in transfected cells
Test: Calcium mobilization assay, determination of antagonist activity (Example 6)
Assay type: cell-based
Settings: 50% decrease in fluorescence response of cells expressing human capsaicin receptor exposed to capsaicin
Description: A cDNA encoding full length human capsaicin receptor (SEQ ID NO:1, 2 or 3 of U.S. Pat. No. 6,482,611) was subcloned in the plasmid pBK-CMV (Stratagene, La Jolla, Calif.) for recombinant expression in mammalian cells.
Human embryonic kidney (HEK293) cells were transfected with the pBK-CMV expression construct encoding the full length human capsaicin receptor using standard methods. The transfected cells were selected for two weeks in media containing G418 (400 μg/ml) to obtain a pool of stably transfected cells. Independent clones were isolated from this pool by limiting dilution to obtain clonal stable cell lines for use in subsequent experiments.
Cells transfected with expression plasmids (as described in Example 4) and thereby expressing human capsaicin receptor are seeded and grown to 70-90% confluency in FALCON black-walled, clear-bottomed 96-well plates (#3904, BECTON-DICKINSON, Franklin Lakes, N.J.). The culture medium is emptied from the 96 well plates and FLUO-3 AM calcium sensitive dye (Molecular Probes, Eugene, Oreg.) is added to each well (dye solution: 1 mg FLUO-3 AM, 440 μL DMSO and 440 μl 20% pluronic acid in DMSO, diluted 1:250 in Krebs-Ringer HEPES (KRH) buffer (25 mM HEPES, 5 mM KCl, 0.96 mM NaH2PO4, 1 mM MgSO4, 2 mM CaCl2, 5 mM glucose, 1 mM probenecid, pH 7.4), 50 μl diluted solution per well). Plates are covered with aluminum foil and incubated at 37° C. for 1-2 hours in an environment containing 5% CO2. After the incubation, the dye is emptied from the plates, and the cells are washed once with KRH buffer, and resuspended in KRH buffer.
To measure the ability of a test compound to agonize or antagonize a calcium mobilization response in cells expressing capsaicin receptors to capsaicin or other vanilloid agonist, the EC50 of the agonist capsaicin is first determined. An additional 20 μl of KRH buffer and 1 μl DMSO is added to each well of cells, prepared as described above. 100 μl capsaicin in KRH buffer is automatically transferred by the FLIPR instrument to each well. Capsaicin-induced calcium mobilization is monitored using either FLUOROSKAN ASCENT (Labsystems; Franklin, Mass.) or FLIPR (fluorometric imaging plate reader system; Molecular Devices, Sunnyvale, Calif.) instruments. Data obtained between 30 and 60 seconds after agonist application are used to generate an 8-point concentration response curve, with final capsaicin concentrations of 1 nM to 3 μM. KALEIDAGRAPH software (Synergy Software, Reading, Pa.) is used to fit the data to the equation: y=a*(1/(1+(b/x)^c)) to determine the 50% excitatory concentration (EC50) for the response. In this equation, y is the maximum fluorescence signal, x is the concentration of the agonist or antagonist (in this case, capsaicin), a is the Emax, b corresponds to the EC50 value and c is the Hill coefficient. Determination of Agonist Activity
Test compounds are dissolved in DMSO, diluted in 20 μl KRH buffer so that the final concentration of test compounds in the assay well is between 1 μM and 5 μM, and added to cells prepared as described above. The 96 well plates containing prepared cells and test compounds are incubated in the dark, at room temperature for 0.5 to 6 hours. It is important that the incubation not continue beyond 6 hours. Just prior to determining the fluorescence response, 100 μl capsaicin in KRH buffer at twice the EC50 concentration determined as described above is automatically added by the FLIPR instrument to each well of the 96 well plate for a final sample volume of 200 μl and a final capsaicin concentration equal to the EC50. The final concentration of test compounds in the assay wells is between 1 μM and […]. […] The concentration of antagonist required to provide a 50% decrease, relative to the response observed in the presence of capsaicin and without antagonist, is the IC50 for the antagonist, and is preferably below 1 micromolar, 100 nanomolar, 10 nanomolar or 1 nanomolar.

T1 sequence (Q8NER1 whole entry): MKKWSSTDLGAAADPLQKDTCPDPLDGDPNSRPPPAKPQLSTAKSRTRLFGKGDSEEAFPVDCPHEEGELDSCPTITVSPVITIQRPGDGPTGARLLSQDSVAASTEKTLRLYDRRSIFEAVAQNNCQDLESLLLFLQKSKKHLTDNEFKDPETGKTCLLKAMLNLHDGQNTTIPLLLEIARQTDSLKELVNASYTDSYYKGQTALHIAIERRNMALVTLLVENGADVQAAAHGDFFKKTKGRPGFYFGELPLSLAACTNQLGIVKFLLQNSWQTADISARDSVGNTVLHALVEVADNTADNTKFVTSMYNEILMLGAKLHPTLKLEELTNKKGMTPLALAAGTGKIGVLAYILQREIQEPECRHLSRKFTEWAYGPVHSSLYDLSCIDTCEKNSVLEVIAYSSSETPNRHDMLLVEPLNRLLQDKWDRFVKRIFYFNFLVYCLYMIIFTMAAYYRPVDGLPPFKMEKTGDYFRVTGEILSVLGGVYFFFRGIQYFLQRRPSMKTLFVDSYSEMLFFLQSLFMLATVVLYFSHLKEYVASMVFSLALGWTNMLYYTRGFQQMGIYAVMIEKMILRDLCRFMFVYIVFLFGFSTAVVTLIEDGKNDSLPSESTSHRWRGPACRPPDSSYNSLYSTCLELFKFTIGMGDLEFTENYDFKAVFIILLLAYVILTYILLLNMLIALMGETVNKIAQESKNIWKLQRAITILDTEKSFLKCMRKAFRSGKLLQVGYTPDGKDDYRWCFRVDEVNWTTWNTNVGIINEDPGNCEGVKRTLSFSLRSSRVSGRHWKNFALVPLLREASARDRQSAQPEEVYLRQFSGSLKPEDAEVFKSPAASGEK

IC50, ≤ 1000 nM:
CC(C)CCNc1nc(Nc2ccc(C(F)(F)F)cc2)nc(N2CCN(c3ncccc3C(F)(F)F)CC2)n1 [Compound 21, N-(3-Methyl-butyl)-N′-(4-trifluoromethyl-phenyl)-6-[4-(3-trifluoromethyl-pyridin-2-yl)-piperazin-1-yl]-[1,3,5]triazine-2,4-diamine]
CCCNc1nc(Nc2ccc(C(F)(F)F)cc2)nc(N2CCN(c3ncccc3Cl)C[C@H]2C)n1 [Compound 22, 6-[4-(3-Chloro-pyridin-2-yl)-2-methyl-piperazin-1-yl]-N-propyl-N′-(4-trifluoromethyl-phenyl)-[1,3,5]triazine-2,4-diamine (R)]
FC(F)(F)c1ccc(Nc2nc(N3CCOCC3)nc(N3CCN(c4ncccc4C(F)(F)F)CC3)n2)cc1 [Compound 23, {4-Morpholin-4-yl-6-[4-(3-trifluoromethyl-pyridin-2-yl)-piperazin-1-yl]-[1,3,5]triazin-2-yl}-(4-trifluoromethyl-phenyl)-amine]
C[C@@H]1CN(c2ncccc2Cl)CCN1c1nc(Cl)nc(Nc2ccc(C(F)(C(F)(F)F)C(F)(F)F)cc2)n1 [Compound 24, {4-Chloro-6-[4-(3-chloro-pyridin-2-yl)-2-methyl-piperazin-1-yl]-[1,3,5]triazin-2-yl}-[4-(1,2,2,2-tetrafluoro-1-trifluoromethyl-ethyl)-phenyl]-amine (R)]
CCCNc1nc(Nc2ccc(C(F)(C(F)(F)F)C(F)(F)F)cc2)nc(N2CCN(c3ncccc3Cl)C[C@H]2C)n1 [Compound 25, 6-[4-(3-Chloro-pyridin-2-yl)-2-methyl-piperazin-1-yl]-N-propyl-N′-[4-(1,2,2,2-tetrafluoro-1-trifluoromethyl-ethyl)-phenyl]-[1,3,5]triazine-2,4-diamine (R)]
CC(C)CNc1nc(Nc2ccc(C(F)(C(F)(F)F)C(F)(F)F)cc2)nc(N2CCN(c3ncccc3Cl)C[C@H]2C)n1 [Compound 26, 6-[4-(3-Chloro-pyridin-2-yl)-2-methyl-piperazin-1-yl]-N-isobutyl-N′-[4-(1,2,2,2-tetrafluoro-1-trifluoromethyl-ethyl)-phenyl]-[1,3,5]triazine-2,4-diamine (R)]
CCC(C)Nc1nc(Nc2ccc(C(F)(C(F)(F)F)C(F)(F)F)cc2)nc(N2CCN(c3ncccc3Cl)C[C@H]2C)n1 (stereo partly drawn) [Compound 27, N-sec-Butyl-6-[4-(3-chloro-pyridin-2-yl)-2-methyl-piperazin-1-yl]-N′-[4-(1,2,2,2-tetrafluoro-1-trifluoromethyl-ethyl)-phenyl]-[1,3,5]triazine-2,4-diamine (R)]
CCCN(C)c1nc(Nc2ccc(C(F)(F)F)cc2)nc(N2CCN(c3ncccc3Cl)C[C@H]2C)n1 [Compound 30, 6-[4-(3-Chloro-pyridin-2-yl)-2-methyl-piperazin-1-yl]-N-methyl-N-propyl-N′-(4-trifluoromethyl-phenyl)-[1,3,5]triazine-2,4-diamine (R)]
CCCCN(C)c1nc(Nc2ccc(C(F)(F)F)cc2)nc(N2CCN(c3ncccc3Cl)C[C@H]2C)n1 [Compound 31, N-Butyl-6-[4-(3-chloro-pyridin-2-yl)-2-methyl-piperazin-1-yl]-N-methyl-N′-(4-trifluoromethyl-phenyl)-[1,3,5]triazine-2,4-diamine (R)]
C=CCN(CC=C)c1nc(Nc2ccc(C(F)(F)F)cc2)nc(N2CCN(c3ncccc3Cl)C[C@H]2C)n1 [Compound 32, N,N-Diallyl-6-[4-(3-chloro-pyridin-2-yl)-2-methyl-piperazin-1-yl]-N′-(4-trifluoromethyl-phenyl)-[1,3,5]triazine-2,4-diamine (R)]
CCCN(CCC)c1nc(Nc2ccc(C(F)(F)F)cc2)nc(N2CCN(c3ncccc3Cl)C[C@H]2C)n1 [Compound 33, 6-[4-(3-Chloro-pyridin-2-yl)-2-methyl-piperazin-1-yl]-N,N-dipropyl-N′-(4-trifluoromethyl-phenyl)-[1,3,5]triazine-2,4-diamine (R)]
CCCCN(CCCC)c1nc(Nc2ccc(C(F)(F)F)cc2)nc(N2CCN(c3ncccc3Cl)C[C@H]2C)n1 [Compound 34, N,N-Dibutyl-6-[4-(3-chloro-pyridin-2-yl)-2-methyl-piperazin-1-yl]-N′-(4-trifluoromethyl-phenyl)-[1,3,5]triazine-2,4-diamine (R)]
CC(C)N(C)c1nc(Nc2ccc(C(F)(F)F)cc2)nc(N2CCN(c3ncccc3Cl)C[C@H]2C)n1 [Compound 35, 6-[4-(3-Chloro-pyridin-2-yl)-2-methyl-piperazin-1-yl]-N-isopropyl-N-methyl-N′-(4-trifluoromethyl-phenyl)-[1,3,5]triazine-2,4-diamine (R)]
C[C@@H]1CN(c2ncccc2Cl)CCN1c1nc(NCc2cccc(C(F)(F)F)c2)nc(Nc2ccc(C(F)(F)F)cc2)n1 [Compound 37, 6-[4-(3-Chloro-pyridin-2-yl)-2-methyl-piperazin-1-yl]-N-(3-trifluoromethyl-benzyl)-N′-(4-trifluoromethyl-phenyl)-[1,3,5]triazine-2,4-diamine (R)]
C[C@@H]1CN(c2ncccc2Cl)CCN1c1nc(NCc2ccccc2)nc(Nc2ccc(C(F)(F)F)cc2)n1 [Compound 38, N-Benzyl-6-[4-(3-chloro-pyridin-2-yl)-2-methyl-piperazin-1-yl]-N′-(4-trifluoromethyl-phenyl)-[1,3,5]triazine-2,4-diamine (R)]
CC(C)CCNc1nc(Nc2ccc(C(F)(F)F)cc2)nc(N2CCN(c3ncccc3Cl)C[C@H]2C)n1 [Compound 39, 6-[4-(3-Chloro-pyridin-2-yl)-2-methyl-piperazin-1-yl]-N-(3-methyl-butyl)-N′-(4-trifluoromethyl-phenyl)-[1,3,5]triazine-2,4-diamine (R)]
CC(C)CNc1nc(Nc2ccc(C(F)(F)F)cc2)nc(N2CCN(c3ncccc3Cl)C[C@H]2C)n1 [Compound 40, 6-[4-(3-Chloro-pyridin-2-yl)-2-methyl-piperazin-1-yl]-N-isobutyl-N′-(4-trifluoromethyl-phenyl)-[1,3,5]triazine-2,4-diamine (R)]
C[C@@H]1CN(c2ncccc2Cl)CCN1c1nc(NCCCc2ccccc2)nc(Nc2ccc(C(F)(F)F)cc2)n1 [Compound 41, 6-[4-(3-Chloro-pyridin-2-yl)-2-methyl-piperazin-1-yl]-N-(3-phenyl-propyl)-N′-(4-trifluoromethyl-phenyl)-[1,3,5]triazine-2,4-diamine (R)]
CN(C)c1nc(Nc2ccc(C(F)(F)F)cc2)nc(N2CCN(c3ccccc3)CC2)n1 [Compound 42, N,N-Dimethyl-6-(4-phenyl-piperazin-1-yl)-N′-(4-trifluoromethyl-phenyl)-[1,3,5]triazine-2,4-diamine]
CN(C)c1nc(Nc2ccc(C(F)(F)F)cc2)nc(N2CCN(c3ccccn3)CC2)n1 [Compound 43, N,N-Dimethyl-6-(4-pyridin-2-yl-piperazin-1-yl)-N′-(4-trifluoromethyl-phenyl)-[1,3,5]triazine-2,4-diamine]
CN(C)c1nc(Nc2ccc(C(F)(F)F)cc2)nc(N2CCN(c3ncccc3Cl)CC2)n1 [Compound 44, 6-[4-(3-Chloro-pyridin-2-yl)-piperazin-1-yl]-N,N-dimethyl-N′-(4-trifluoromethyl-phenyl)-[1,3,5]triazine-2,4-diamine]
